These compounds were tested on Tetranor-PGDM EIA Antiserum (assay: Cross-reactivity testing of the antibody in competitive tetranor-PGDM EIA). Conditions: Specificity of the Tetranor-PGDM EIA Antiserum; Example 3 Step D2c.
Method: To determine cross-reactivity of an antibody, the standard curve using optimal tracer and Ab dilutions according the kit instructions was set up. Tetranor PGDM was diluted to 10 ng/mL for the first point in the standard curve and diluted 2.5-fold serially 7 times. First standard dilutions (10 μg/mL) of tetranor-PGJM, tetranor-PGEM, tetranor-PGFM, PGA2, PGD2, PGE2, PGF2α, PGJ2, 13,14-dihydro-15-keto PGD2, 13,14-dihydro-15-keto-PGE2, 13,14-dihydro-15-keto-PGF2, were prepared and 7 additional 6-fold serial dilutions were performed. IC50s of all compounds were determined and each percent cross-reactivity (% XR) values of the potentially cross-reactive compounds was determined by dividing the IC50 of tetranor-PGDM by the IC50 of the test compound and multiplying by 100.

Compound | Cross-reactivity (% XR)
O=C(O)CCCCC(=O)CC[C@@H]1[C@@H](CCC(=O)O)[C@@H](O)C[C@H]1O [tetranor-PGFM] | <0.01%
O=C(O)CCCCC(=O)CC[C@H]1[C@H](O)CC(=O)[C@@H]1CCC(=O)O [tetranor-PGEM] | 0.3%
CCCCC[C@H](O)/C=C/[C@H]1C(=O)C=C[C@@H]1C/C=C\CCCC(=O)O [Prostaglandin J2] | <0.01%
O=C(O)CCCCC(=O)CC[C@H]1C(=O)C=C[C@@H]1CCC(=O)O [tetranor-PGJM] | 376%
CCCCCC(=O)CC[C@H]1[C@H](O)CC(=O)[C@@H]1C/C=C\CCCC(=O)O [13,14-dihydro-15-keto Prostaglandin E2] | <0.01%
CCCCC[C@H](O)/C=C/[C@H]1C=CC(=O)[C@@H]1C/C=C\CCCC(=O)O [Prostaglandin A2] | <0.01%
CCCCCC(=O)CC[C@H]1C(=O)C[C@H](O)[C@@H]1C/C=C\CCCC(=O)O [13,14-dihydro-15-keto Prostaglandin D2] | <0.01%
CCCCC[C@H](O)/C=C/[C@H]1[C@H](O)CC(=O)[C@@H]1C/C=C\CCCC(=O)O [Prostaglandin E2] | <0.01%
CCCCCC(=O)CC[C@@H]1[C@@H](C/C=C\CCCC(=O)O)[C@@H](O)C[C@H]1O [13,14-dihydro-15-keto Prostaglandin F2α] | <0.01%
CCCCC[C@H](O)/C=C/[C@H]1C(=O)C[C@H](O)[C@@H]1C/C=C\CCCC(=O)O [Prostaglandin D2] | <0.01%
O=C(O)CCCCC(=O)CC[C@H]1C(=O)C[C@H](O)[C@@H]1CCC(=O)O [tetranor-PGDM, 9α-hydroxy-11,15-dioxo-13,14-dihydro-2,3,4,5-tetranor-prostan-1,20-dioic acid] | 100%
Prostaglandin F2α | <0.01%

Reference: patent US20120021437A1, “TETRANOR-PGDM/PGJM SPECIFIC IMMUNOGENS, ANTIBODIES, TRACERS, ASSAY KITS AND METHODS FOR MAKING SAME” (Cayman Chemical Company, Incorporated, priority 2010, published 2012)
